Data from PubChem BioAssay AID2060490 (Molecular Pharmacology Branch, DTP, NCI, 2025).

Test system: 885512-296-R-J2-PDC complex spheroid viability
Assay: Anticancer human tumor 885512-296-R-J2-PDC patient-derived breast carcinoma cell line growth inhibition [GQUAD]
Settings: for IC50: curve of first compound; for viability, T/C: stronger effect = lower value
Procedure, shortened: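 Viability of tumor cells grown as complex spheroids with endothelial and stromal cells, exposed to drug combinations. Top concentration at or near clinical Cmax (else 10 microM), diluted in half-log increments.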

[1] = second compound 0.0316 µM, first compound 0.0316 µM
[2] = second compound 0.0316 µM, first compound 0.1 µM
[3] = second compound 0.0316 µM, first compound 0.316 µM
[4] = second compound 0.0316 µM, first compound 1 µM
[5] = second compound 0.0316 µM, first compound 3.16 µM
[6] = second compound 0.0316 µM, first compound 10 µM
[7] = second compound 0.1 µM, first compound 0.0316 µM
[8] = second compound 0.1 µM, first compound 0.1 µM
[9] = second compound 0.1 µM, first compound 0.316 µM
[10] = second compound 0.1 µM, first compound 1 µM
[11] = second compound 0.1 µM, first compound 3.16 µM
[12] = second compound 0.1 µM, first compound 10 µM
[13] = second compound 0.316 µM, first compound 0.0316 µM
[14] = second compound 0.316 µM, first compound 0.1 µM
[15] = second compound 0.316 µM, first compound 0.316 µM
[16] = second compound 0.316 µM, first compound 1 µM
[17] = second compound 0.316 µM, first compound 3.16 µM
[18] = second compound 0.316 µM, first compound 10 µM
[19] = second compound 1 µM, first compound 0.0316 µM
[20] = second compound 1 µM, first compound 0.1 µM
[21] = second compound 1 µM, first compound 0.316 µM
[22] = second compound 1 µM, first compound 1 µM
[23] = second compound 1 µM, first compound 3.16 µM
[24] = second compound 1 µM, first compound 10 µM
[25] = second compound 3.16 µM, first compound 0.0316 µM
[26] = second compound 3.16 µM, first compound 0.1 µM
[27] = second compound 3.16 µM, first compound 0.316 µM
[28] = second compound 3.16 µM, first compound 1 µM
[29] = second compound 3.16 µM, first compound 3.16 µM
[30] = second compound 3.16 µM, first compound 10 µM
[31] = second compound 10 µM, first compound 0.0316 µM
[32] = second compound 10 µM, first compound 0.1 µM
[33] = second compound 10 µM, first compound 0.316 µM
[34] = second compound 10 µM, first compound 1 µM
[35] = second compound 10 µM, first compound 3.16 µM
[36] = second compound 10 µM, first compound 10 µM
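Note: spheroids exposed to the compounds for one week.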
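Throughout, for viability, T/C: percent of tumor spheroid viability relative to DMSO vehicle control wells.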

SMILES: Cc1cccc(N(C)C(=O)C2C(O)CCN2c2nc(C)cc(C(F)(F)F)c2C#N)c1 (stereo unspecified) + CN(C)c1ccc(Nc2c3ccc(NC(=O)CCN4CCCC4)cc3nc3cc(NC(=O)CCN4CCCC4)ccc23)cc1
- IC50 (second compound 0.0316 µM): > 10000 nM
- IC50 (second compound 0.1 µM): > 10000 nM
- IC50 (second compound 0.316 µM): > 10000 nM
- IC50 (second compound 1 µM): > 10000 nM
- IC50 (second compound 3.16 µM): > 10000 nM
- IC50 (second compound 10 µM): < 31.6 nM
- viability, T/C [1]: 101%
- viability, T/C [2]: 89.8%
- viability, T/C [3]: 106%
- viability, T/C [4]: 102%
- viability, T/C [5]: 113%
- viability, T/C [6]: 97.7%
- viability, T/C [7]: 110%
- viability, T/C [8]: 106%
- viability, T/C [9]: 102%
- viability, T/C [10]: 87.3%
- viability, T/C [11]: 104%
- viability, T/C [12]: 91.7%
- viability, T/C [13]: 111%
- viability, T/C [14]: 99.6%
- viability, T/C [15]: 106%
- viability, T/C [16]: 97.8%
- viability, T/C [17]: 101%
- viability, T/C [18]: 96.8%
- viability, T/C [19]: 88.5%
- viability, T/C [20]: 105%
- viability, T/C [21]: 95.1%
- viability, T/C [22]: 93.2%
- viability, T/C [23]: 84.6%
- viability, T/C [24]: 80.8%
- viability, T/C [25]: 94.8%
- viability, T/C [26]: 96.5%
- viability, T/C [27]: 108%
- viability, T/C [28]: 86.8%
- viability, T/C [29]: 96.2%
- viability, T/C [30]: 62.2%
- viability, T/C [31]: 23.6%
- viability, T/C [32]: 22.4%
- viability, T/C [33]: 18.6%
- viability, T/C [34]: 19.3%
- viability, T/C [35]: 15.8%
- viability, T/C [36]: 5.88%

SMILES: Cn1ncnc1[C@H]1c2n[nH]c(=O)c3cc(F)cc(c23)N[C@@H]1c1ccc(F)cc1 + CN(C)c1ccc(Nc2c3ccc(NC(=O)CCN4CCCC4)cc3nc3cc(NC(=O)CCN4CCCC4)ccc23)cc1
- IC50 (second compound 0.0316 µM): 208 nM
- IC50 (second compound 0.1 µM): > 316 nM
- IC50 (second compound 0.316 µM): 215 nM
- IC50 (second compound 1 µM): 195 nM
- IC50 (second compound 3.16 µM): 74 nM
- IC50 (second compound 10 µM): < 0.999 nM
- viability, T/C (second compound 0.0316 µM, first compound 0.000999 µM): 90%
- viability, T/C (second compound 0.0316 µM, first compound 0.00316 µM): 96.1%
- viability, T/C (second compound 0.0316 µM, first compound 0.00999 µM): 91.3%
- viability, T/C [1]: 90.5%
- viability, T/C (second compound 0.0316 µM, first compound 0.0999 µM): 64.3%
- viability, T/C [3]: 41.9%
- viability, T/C (second compound 0.1 µM, first compound 0.000999 µM): 112%
- viability, T/C (second compound 0.1 µM, first compound 0.00316 µM): 91.8%
- viability, T/C (second compound 0.1 µM, first compound 0.00999 µM): 99.3%
- viability, T/C [7]: 75.9%
- viability, T/C (second compound 0.1 µM, first compound 0.0999 µM): 71.6%
- viability, T/C [9]: 53.9%
- viability, T/C (second compound 0.316 µM, first compound 0.000999 µM): 112%
- viability, T/C (second compound 0.316 µM, first compound 0.00316 µM): 101%
- viability, T/C (second compound 0.316 µM, first compound 0.00999 µM): 94.4%
- viability, T/C [13]: 79.5%
- viability, T/C (second compound 0.316 µM, first compound 0.0999 µM): 61.5%
- viability, T/C [15]: 44%
- viability, T/C (second compound 1 µM, first compound 0.000999 µM): 96.8%
- viability, T/C (second compound 1 µM, first compound 0.00316 µM): 94%
- viability, T/C (second compound 1 µM, first compound 0.00999 µM): 90.4%
- viability, T/C [19]: 81.4%
- viability, T/C (second compound 1 µM, first compound 0.0999 µM): 57.8%
- viability, T/C [21]: 44.2%
- viability, T/C (second compound 3.16 µM, first compound 0.000999 µM): 95.2%
- viability, T/C (second compound 3.16 µM, first compound 0.00316 µM): 96.9%
- viability, T/C (second compound 3.16 µM, first compound 0.00999 µM): 93.8%
- viability, T/C [25]: 64.7%
- viability, T/C (second compound 3.16 µM, first compound 0.0999 µM): 47.8%
- viability, T/C [27]: 36%
- viability, T/C (second compound 10 µM, first compound 0.000999 µM): 18.6%
- viability, T/C (second compound 10 µM, first compound 0.00316 µM): 23%
- viability, T/C (second compound 10 µM, first compound 0.00999 µM): 25%
- viability, T/C [31]: 20.3%
- viability, T/C (second compound 10 µM, first compound 0.0999 µM): 19.1%
- viability, T/C [33]: 15.5%

SMILES: Nc1ccn(C2OC(CO)C(O)C2(F)F)c(=O)n1 (stereo unspecified) + CN(C)c1ccc(Nc2c3ccc(NC(=O)CCN4CCCC4)cc3nc3cc(NC(=O)CCN4CCCC4)ccc23)cc1
- IC50 (second compound 0.0316 µM): < 31.6 nM
- IC50 (second compound 0.1 µM): < 31.6 nM
- IC50 (second compound 0.316 µM): < 31.6 nM
- IC50 (second compound 1 µM): < 31.6 nM
- IC50 (second compound 3.16 µM): < 31.6 nM
- IC50 (second compound 10 µM): < 31.6 nM
- viability, T/C [1]: 9.1%
- viability, T/C [2]: 2.14%
- viability, T/C [3]: 2.5%
- viability, T/C [4]: 3.16%
- viability, T/C [5]: 3.03%
- viability, T/C [6]: 2.58%
- viability, T/C [7]: 7.88%
- viability, T/C [8]: 2.78%
- viability, T/C [9]: 2.67%
- viability, T/C [10]: 2.57%
- viability, T/C [11]: 2.19%
- viability, T/C [12]: 2.48%
- viability, T/C [13]: 6.92%
- viability, T/C [14]: 2.8%
- viability, T/C [15]: 3.02%
- viability, T/C [16]: 2.49%
- viability, T/C [17]: 2.88%
- viability, T/C [18]: 2.91%
- viability, T/C [19]: 7.45%
- viability, T/C [20]: 2.12%
- viability, T/C [21]: 2.71%
- viability, T/C [22]: 2.43%
- viability, T/C [23]: 2.45%
- viability, T/C [24]: 2.25%
- viability, T/C [25]: 8.52%
- viability, T/C [26]: 3.21%
- viability, T/C [27]: 2.06%
- viability, T/C [28]: 2.2%
- viability, T/C [29]: 2.24%
- viability, T/C [30]: 1.81%
- viability, T/C [31]: 7.17%
- viability, T/C [32]: 2.02%
- viability, T/C [33]: 2.12%
- viability, T/C [34]: 1.7%
- viability, T/C [35]: 1.53%
- viability, T/C [36]: 1.39%
